Patent US4751217A, “Physiologically active substances named SEN-366” (Nippon Shinyaku Co., Ltd., priority 1984, dated 1988)
Converted amounts (≈) assume the structure as drawn.

What was measured:
Assay type in all cases: cell-based
[1] = system: platelet aggregation (collagen); assay: Inhibitory action against platelet aggregation, inducer collagen; conditions: for IC50: Oryctolagus cuniculus, Platelet, collagen 10 μg/ml, rabbit PRP
Procedure: (§1) Inhibitory Action against Platelet Aggregation:
(§2) (1) Materials and Method:
(§3) The sample is tested after dissolved in dimethyl sulfoxide. The preparation is conducted so as to make the final concentration of the solvent 1%. Dimethyl sulfoxide of the same concentration is used as a control. As to inducers for platelet aggregation, ADP (final concentration: 5 μm), AA (arachidonic acid) (final concentration: 150 μM) and collagen (final concentration: 10 μg/ml) are used.
(§4) (2) Preparation of platelet:
Blood is taken from total neck artery of male rabbits of 2.0-2.5 kg body weight. […] The precipitate is further centrifuged at 1600×g for 10 minutes and the resulting supernatant liquid is used as plasma with poor platelet (hereinafter abbreviated as PPP).
(§5) (3) Method for Measuring Aggregation Power:
(§6) A measuring apparatus for platelet aggregation is used and the changes in absorbancy by the aggregation with an elapse of time are recorded.
(§7) Thus, 200 microliters of PRP is taken, its difference between PPP is adjusted to a certain value, then 25 microliters of control solution or test solution is added, the mixture is stirred (1000 rpm) for 1 minutes, 25 microliters of aggregation inducer is added, and the changes in absorbancy are recorded. The inhibitory ratio is calculated from the following expression from the maximum aggregation ratio of the control (A in %) and that of the test solution (B in %): [formula]
(§8) The sample is tested after dissolved in dimethyl sulfoxide. The preparation is conducted so as to make the final concentration of the solvent 1%. Dimethyl sulfoxide of the same concentration is used as a control. As to inducers for platelet aggregation, ADP (final concentration: 5 μM), AA (arachidonic acid) (final concentration: 150 μM) and collagen (final concentration: 10 μg/ml) are used.
(§9) Blood is taken from total neck artery of male rabbits of 2.0-2.5 kg body weight. To the blood is added 1/10 volume of 3.8% citric acid solution, the mixture is gently stirred, centrifuged 1300×g for 2 minutes, and the resulting supernatant liquid is used as plasma with abundant platelet (hereinafter abbreviated as PRP). The precipitate is further centrifuged at 1600×g for 10 minutes and the resulting supernatant liquid is used as plasma with poor platelet (hereinafter abbreviated as PPP).
(§10) Thus, 200 microliters of PRP is taken, its difference between PPP is adjusted to a certain value, then 25 microliters of control solution or test solution is added, the mixture is stirred (1000 rpm) for 1 minute, 25 microliters of aggregation inducer is added, and the changes in absorbancy are recorded. The inhibitory ratio is calculated from the following expression from the maximum aggregation ratio of the control (A in %) and that of the test solution (B in %): [formula]

[2] = system: platelet aggregation (AA); assay: Inhibitory action against platelet aggregation, inducer arachidonic acid (AA); conditions: for IC50: Oryctolagus cuniculus, Platelet, AA 150 μM, rabbit PRP
Procedure: as §1, §2, §3, §4
(§11) Blood is taken from total neck artery of male rabbits of 2.0-2.5 kg body weight. To the blood is added 1/10 volume of 3.8% sodium citrate solution, the mixture is gently stirred, centrifuged 1300×g for 2 minutes, and the resulting supernatant liquid is used as plasma with abundant platelet (hereinafter abbreviated as PRP). The precipitate is further centrifuged at 1600×g for 10 minutes and the resulting supernatant liquid is used as plasma with poor platelet (hereinafter abbreviated as PPP).
as §5, §6, §7
(§12) Inhibitory ratios with varied test solution concentrations are calculated and the IC50 (50% inhibitory concentration) is calculated therefrom.
as §8, §9, §10

[3] = system: platelet aggregation (ADP); assay: Inhibitory action against platelet aggregation, inducer ADP; conditions: for IC50: Oryctolagus cuniculus, Platelet, ADP 5 μM, rabbit PRP
Procedure: as §1, §2, §3, §4, §11, §5, §6, §7, §12, §8, §9, §10

[4] = Table 2, rabbit PRP, listed as E3
[5] = Table 1, rabbit PRP, listed as A4
[6] = Table 1, rabbit PRP, listed as BT1
[7] = Table 2, rabbit PRP, listed as M4
[8] = Table 2, rabbit PRP, listed as CB4
[9] = Table 1, rabbit PRP, listed as A3
[10] = Table 1, rabbit PRP, listed as B3
[11] = Table 1, rabbit PRP, listed as B4

In the case of `CCOC1CCC(OC2CCC(OC3C=CC(=O)C(C)O3)C(C)O2)C(C)O1` (stereo not drawn) [SEN-366-E3], the “IC50 Collagen 10 μg/ml” value [1, 4] is reported as 4.4 µg/mL (≈ 11.4 µM), the “IC50 AA 150 μM” value [2, 4] is reported as 14.0 µg/mL (≈ 36.4 µM) and the “IC50 ADP 5 μM” value [3, 4] is reported as 12.4 µg/mL (≈ 32.3 µM).
`CC(=O)OC1CCC(OC2CCC(OC3CCC(=O)C(C)O3)C(C)O2)C(C)O1` (stereo not drawn) [SEN-366-A4] was tested, and the “IC50 Collagen 10 μg/ml” value [1, 5] was 0.27 µg/mL (≈ 0.674 µM), the “IC50 AA 150 μM” value [2, 5] was 5.4 µg/mL (≈ 13.5 µM) and the “IC50 ADP 5 μM” value [3, 5] was over 10 µg/mL.
For `CCCC(=O)OC1CCC(OC2CCC(OC3C=CC(=O)C(C)O3)C(C)O2)C(C)O1` (stereo not drawn) [SEN-366-BT1], the IC50 ([1]; Table 1) was 0.17 µg/mL (≈ 0.399 µM), the “IC50 AA 150 μM” value [2, 6] was 1.55 µg/mL (≈ 3.63 µM) and the “IC50 ADP 5 μM” value [3, 6] was 1.1 µg/mL (≈ 2.58 µM).
With `COC1CCC(OC2CCC(OC3CCC(=O)C(C)O3)C(C)O2)C(C)O1` (stereo not drawn) [SEN-366-M4] the “IC50 Collagen 10 μg/ml” value [1, 7] was 18.0 µg/mL (≈ 48.3 µM), the “IC50 AA 150 μM” value [2, 7] was 47.0 µg/mL (≈ 126 µM) and the “IC50 ADP 5 μM” value [3, 7] was 53.0 µg/mL (≈ 142 µM).
Compound `CC1OC(OC2CCC(OC3CCC(OC(=O)c4ccc(Cl)cc4)OC3C)OC2C)C=CC1=O` (stereo not drawn) [SEN-366-CB1] has an IC50 ([1]; Table 2) of 0.06 µg/mL (≈ 0.121 µM), an IC50 ([2]; Table 2) of 1.1 µg/mL (≈ 2.22 µM) and an IC50 ([3]; Table 2) of 0.3 µg/mL (≈ 0.606 µM).
In the case of `CC(=O)OC1CCC(OC2CCC(OC3CCC(=O)C(C)O3)C(C)O2)C(C)O1` (stereo not drawn) [SEN-366-A2], the IC50 ([1]; Table 1) is reported as 0.54 µg/mL (≈ 1.35 µM), the IC50 ([2]; Table 1) is reported as 6 µg/mL (≈ 15 µM) and the “IC50 ADP 5 μM” value ([3]; Table 1, rabbit PRP, listed as A2) is reported as 1.6 µg/mL (≈ 4 µM).
`CC1OC(OC2CCC(OC3CCC(OC(=O)c4ccc(Cl)cc4)OC3C)OC2C)CCC1=O` (stereo not drawn) [SEN-366-CB4] was tested, and the “IC50 Collagen 10 μg/ml” value [1, 8] was 1.7 µg/mL (≈ 3.42 µM), the “IC50 AA 150 μM” value [2, 8] was over 5 µg/mL and the “IC50 ADP 5 μM” value [3, 8] was 4.2 µg/mL (≈ 8.45 µM).
`CC1OC(OC2CCC(OC3CCC(OC(=O)c4ccccc4)OC3C)OC2C)C=CC1=O` (stereo not drawn) [SEN-366-B1] gave an IC50 ([1]; Table 1) of 0.16 µg/mL (≈ 0.347 µM), an IC50 ([2]; Table 1) of 0.32 µg/mL (≈ 0.695 µM) and an IC50 ([3]; Table 1) of 1.1 µg/mL (≈ 2.39 µM).
Work on `COC1CCC(OC2CCC(OC3CCC(=O)C(C)O3)C(C)O2)C(C)O1` (stereo not drawn) [SEN-366-M2] yielded an IC50 ([1]; Table 2) of 16.3 µg/mL (≈ 43.8 µM), an IC50 ([2]; Table 2) of 42 µg/mL (≈ 113 µM) and an IC50 ([3]; Table 2) of 55 µg/mL (≈ 148 µM).
With `CC(=O)OC1CCC(OC2CCC(OC3C=CC(=O)C(C)O3)C(C)O2)C(C)O1` (stereo not drawn) [SEN-366-A3] the “IC50 Collagen 10 μg/ml” value [1, 9] was 0.47 µg/mL (≈ 1.18 µM), the “IC50 AA 150 μM” value [2, 9] was 1.6 µg/mL (≈ 4.02 µM) and the “IC50 ADP 5 μM” value [3, 9] was 0.44 µg/mL (≈ 1.1 µM).
With `CC1OC(OC2CCC(OC3CCC(OC(=O)c4ccccc4)OC3C)OC2C)C=CC1=O` (stereo not drawn) [SEN-366-B3] the “IC50 Collagen 10 μg/ml” value [1, 10] was 0.17 µg/mL (≈ 0.369 µM), the “IC50 AA 150 μM” value [2, 10] was 0.55 µg/mL (≈ 1.19 µM) and the “IC50 ADP 5 μM” value [3, 10] was 1.0 µg/mL (≈ 2.17 µM).
`CCOC1CCC(OC2CCC(OC3CCC(=O)C(C)O3)C(C)O2)C(C)O1` (stereo not drawn) [SEN-366-E2] gave an IC50 ([1]; Table 2) of 22.1 µg/mL (≈ 57.2 µM), an IC50 ([2]; Table 2) of 52 µg/mL (≈ 135 µM) and an IC50 ([3]; Table 2) of over 100 µg/mL.
In the case of `CC1OC(OC2CCC(OC3CCC(OC(=O)c4ccccc4)OC3C)OC2C)CCC1=O` (stereo not drawn) [SEN-366-B4], the “IC50 Collagen 10 μg/ml” value [1, 11] is reported as 2.9 µg/mL (≈ 6.27 µM), the “IC50 AA 150 μM” value [2, 11] is reported as 1.2 µg/mL (≈ 2.59 µM) and the “IC50 ADP 5 μM” value [3, 11] is reported as 6.5 µg/mL (≈ 14.1 µM).
In the case of `CC1OC(OC2CCC(OC3CCC(OC(=O)c4ccc(Cl)cc4)OC3C)OC2C)CCC1=O` (stereo not drawn) [SEN-366-CB2], the IC50 ([1]; Table 2) is reported as 1 µg/mL (≈ 2.01 µM), the IC50 ([2]; Table 2) is reported as 6.2 µg/mL (≈ 12.5 µM) and the IC50 ([3]; Table 2) is reported as 3.2 µg/mL (≈ 6.44 µM).
